The text below walks through data of ChEMBL document CHEMBL2331210, “New 2-benzylsulfanyl-nicotinic acid based 1,3,4-oxadiazoles: their synthesis and biological evaluation” (2013).

What all share (format): functional
One experiment deals with Aspergillus clavatus. Put plainly: Antimicrobial activity against Aspergillus clavatus MTCC 1323 assessed as growth inhibition measured after overnight incubation by broth dilution method.
Another experiment concerns Escherichia coli. Put plainly: Antimicrobial activity against Escherichia coli MTCC 443 assessed as growth inhibition measured after overnight incubation by broth dilution method.
Another experiment relates to Pseudomonas aeruginosa. Put plainly: Antimicrobial activity against Pseudomonas aeruginosa MTCC 2488 assessed as growth inhibition measured after overnight incubation by broth dilution method.
The subject of the next experiment is Streptococcus pyogenes. Put plainly: Antimicrobial activity against Streptococcus pyogenes MTCC 442 assessed as growth inhibition measured after overnight incubation by broth dilution method.
The subject of another experiment is Staphylococcus aureus. Description: Antimicrobial activity against Staphylococcus aureus MTCC 96 assessed as growth inhibition measured after overnight incubation by broth dilution method.
The test system of the next experiment is Aspergillus niger. Put plainly: Antimicrobial activity against Aspergillus niger MTCC 282 assessed as growth inhibition measured after overnight incubation by broth dilution method.
The subject of a further experiment is Candida albicans. Put plainly: Antimicrobial activity against Candida albicans MTCC 227 assessed as growth inhibition measured after overnight incubation by broth dilution method.
For experiment [1], the system named is Mycobacterium tuberculosis. Put plainly: Antitubercular activity against Mycobacterium tuberculosis H37Rv assessed as growth inhibition after 12 to 28 days by L.J. agar MIC method. The note with it: for MIC: Mycobacterium tuberculosis, H37Rv.

In brackets after ≈: the same amount, converted by molar mass.

Turning to `COc1cc(OC)nc(NC(=O)CCl)n1`, the MIC in the experiment on Aspergillus clavatus was above 1000 µg/mL; in the experiment on Escherichia coli, 100 µg/mL (≈ 432 µM); with Pseudomonas aeruginosa, 125 µg/mL (≈ 540 µM); in the experiment with Streptococcus pyogenes, 125 µg/mL (≈ 540 µM); with Staphylococcus aureus, 500 µg/mL (≈ 2160 µM); in the experiment with Aspergillus niger it was 1000 µg/mL (≈ 4320 µM). Also, the values for the MIC (with Candida albicans; in experiment [1]) were 500 µg/mL (≈ 2160 µM) and 250 µg/mL (≈ 1080 µM), respectively. Moreover, the “growth inhibition (GI)” value in experiment [1] stood at 98%.
Take `Cc1cnc(NC(=O)CCl)s1`: the MIC stood at 500 µg/mL (≈ 2620 µM) in the experiment with Aspergillus clavatus; 250 µg/mL (≈ 1310 µM) in the experiment on Escherichia coli; 250 µg/mL (≈ 1310 µM) in the experiment with Pseudomonas aeruginosa; 250 µg/mL (≈ 1310 µM) in the experiment with Streptococcus pyogenes; 500 µg/mL (≈ 2620 µM) in the experiment with Staphylococcus aureus; 500 µg/mL (≈ 2620 µM) with Aspergillus niger. For the same compound, the MIC in the experiment on Candida albicans amounted to 200 µg/mL (≈ 1050 µM); in experiment [1] it was 250 µg/mL (≈ 1310 µM). The “growth inhibition (GI)” value in experiment [1] is recorded as 97%.
For `O=C(CCl)Nc1nc(Cl)cc(Cl)n1`, the minimal inhibitory concentration (MIC) was above 1000 µg/mL with Aspergillus clavatus; 200 µg/mL (≈ 832 µM) in the experiment on Escherichia coli; 500 µg/mL (≈ 2080 µM) with Pseudomonas aeruginosa; 200 µg/mL (≈ 832 µM) with Streptococcus pyogenes; 500 µg/mL (≈ 2080 µM) with Staphylococcus aureus; above 1000 µg/mL in the experiment with Aspergillus niger. Besides, the MIC was 250 µg/mL (≈ 1040 µM) in the experiment with Candida albicans and 500 µg/mL (≈ 2080 µM) in experiment [1]. In addition, the “growth inhibition (GI)” value in experiment [1] is 88%.
As for `O=C(CCl)Nn1cnnc1`, the MIC in the experiment on Aspergillus clavatus was above 1000 µg/mL; in the experiment with Escherichia coli, 250 µg/mL (≈ 1560 µM); in the experiment on Pseudomonas aeruginosa it was 250 µg/mL (≈ 1560 µM); in the experiment with Streptococcus pyogenes it was 250 µg/mL (≈ 1560 µM); in the experiment on Staphylococcus aureus, 500 µg/mL (≈ 3110 µM); in the experiment on Aspergillus niger it was above 1000 µg/mL. Further, the MIC (in the experiment on Candida albicans; in experiment [1]) was 1000 µg/mL (≈ 6230 µM) in each case. For the same compound, in experiment [1], the “growth inhibition (GI)” value is 90%.
In the case of `CN1CCN(C(=O)CCl)CC1`, the MIC was 500 µg/mL (≈ 2830 µM) with Aspergillus clavatus; 125 µg/mL (≈ 708 µM) in the experiment on Escherichia coli; 100 µg/mL (≈ 566 µM) in the experiment on Pseudomonas aeruginosa; 100 µg/mL (≈ 566 µM) in the experiment with Streptococcus pyogenes; 250 µg/mL (≈ 1420 µM) in the experiment on Staphylococcus aureus; above 1000 µg/mL in the experiment with Aspergillus niger. For the same compound, the MIC amounted to 1000 µg/mL (≈ 5660 µM) in the experiment with Candida albicans and 250 µg/mL (≈ 1420 µM) in experiment [1]. Also, the “growth inhibition (GI)” value in experiment [1] is given as 99%.
`Cc1ccc2sc(-c3ccc(NC(=O)CCl)cc3)nc2c1`: the MIC with Aspergillus clavatus stood at 500 µg/mL (≈ 1580 µM); in the experiment with Escherichia coli it was 125 µg/mL (≈ 395 µM); with Pseudomonas aeruginosa, 100 µg/mL (≈ 316 µM); in the experiment on Streptococcus pyogenes, 100 µg/mL (≈ 316 µM); in the experiment with Staphylococcus aureus, 250 µg/mL (≈ 789 µM); in the experiment on Aspergillus niger it was 1000 µg/mL (≈ 3160 µM). The values for the MIC (in the experiment on Candida albicans; in experiment [1]) were 500 µg/mL (≈ 1580 µM) and 200 µg/mL (≈ 631 µM), respectively. Moreover, the “growth inhibition (GI)” value in experiment [1] turned out to be 99%.
For the compound `NNC(=O)c1cccnc1SCc1ccccc1`, the minimal inhibitory concentration (MIC) in the experiment on Aspergillus clavatus came to 250 µg/mL (≈ 964 µM); with Escherichia coli, 125 µg/mL (≈ 482 µM); in the experiment with Pseudomonas aeruginosa it was 200 µg/mL (≈ 771 µM); in the experiment with Streptococcus pyogenes, 125 µg/mL (≈ 482 µM); in the experiment with Staphylococcus aureus, 125 µg/mL (≈ 482 µM); in the experiment on Aspergillus niger, 500 µg/mL (≈ 1930 µM). In addition, the results for the minimal inhibitory concentration (MIC) (in the experiment with Candida albicans; in experiment [1]) were 500 µg/mL (≈ 1930 µM) and 250 µg/mL (≈ 964 µM), respectively. Further, in experiment [1], the “growth inhibition (GI)” value stood at 99%.
Turning to `S=c1[nH]nc(-c2cccnc2SCc2ccccc2)o1`, the minimum inhibitory concentration (MIC) in the experiment on Aspergillus clavatus was determined as 200 µg/mL (≈ 664 µM); in the experiment with Escherichia coli it was 100 µg/mL (≈ 332 µM); with Pseudomonas aeruginosa, 125 µg/mL (≈ 415 µM); with Streptococcus pyogenes, 100 µg/mL (≈ 332 µM); in the experiment on Staphylococcus aureus it was 100 µg/mL (≈ 332 µM); in the experiment with Aspergillus niger it was 1000 µg/mL (≈ 3320 µM). Moreover, the minimum inhibitory concentration (MIC) in the experiment with Candida albicans was found to be 1000 µg/mL (≈ 3320 µM); in experiment [1], 100 µg/mL (≈ 332 µM). The “growth inhibition (GI)” value in experiment [1] was determined as 99%.
Consider `O=C(CSc1nnc(-c2cccnc2SCc2ccccc2)o1)Nn1cnnc1`, for which the MIC worked out at 500 µg/mL (≈ 1180 µM) in the experiment with Aspergillus clavatus; 100 µg/mL (≈ 235 µM) with Escherichia coli; 125 µg/mL (≈ 294 µM) in the experiment with Pseudomonas aeruginosa; 125 µg/mL (≈ 294 µM) in the experiment on Streptococcus pyogenes; 250 µg/mL (≈ 588 µM) in the experiment with Staphylococcus aureus; 1000 µg/mL (≈ 2350 µM) in the experiment with Aspergillus niger. The MIC in the experiment on Candida albicans came to 100 µg/mL (≈ 235 µM); in experiment [1], 25 µg/mL (≈ 58.8 µM). Besides, the “growth inhibition (GI)” value in experiment [1] came to 99%.
For `N#CSc1ccc2nc(NC(=O)CSc3nnc(-c4cccnc4SCc4ccccc4)o3)sc2c1`, the minimum inhibitory concentration (MIC) with Aspergillus clavatus came to 250 µg/mL (≈ 456 µM); with Escherichia coli it was 250 µg/mL (≈ 456 µM); in the experiment with Pseudomonas aeruginosa, 62.5 µg/mL (≈ 114 µM); in the experiment on Streptococcus pyogenes it was 12.5 µg/mL (≈ 22.8 µM); in the experiment with Staphylococcus aureus, 250 µg/mL (≈ 456 µM); in the experiment on Aspergillus niger, 100 µg/mL (≈ 182 µM). Moreover, the values for the MIC (in the experiment on Candida albicans; in experiment [1]) were 500 µg/mL (≈ 911 µM) and 50 µg/mL (≈ 91.1 µM), respectively. In experiment [1], the “growth inhibition (GI)” value was 99%.
Take `CCOC(=O)CSc1nnc(-c2cccnc2SCc2ccccc2)o1`: the MIC in the experiment on Aspergillus clavatus was determined as 1000 µg/mL (≈ 2580 µM); with Escherichia coli, 500 µg/mL (≈ 1290 µM); with Pseudomonas aeruginosa, 200 µg/mL (≈ 516 µM); in the experiment with Streptococcus pyogenes it was 125 µg/mL (≈ 323 µM); in the experiment on Staphylococcus aureus it was 500 µg/mL (≈ 1290 µM); with Aspergillus niger it was 1000 µg/mL (≈ 2580 µM). The figures for the minimal inhibitory concentration (MIC) (in the experiment with Candida albicans; in experiment [1]) were 1000 µg/mL (≈ 2580 µM) and 100 µg/mL (≈ 258 µM), respectively. In experiment [1], the “growth inhibition (GI)” value came out at 98%.
For the compound `c1ccc(CSc2ncccc2-c2nnc(SCC3CO3)o2)cc1` (configuration not stated), the MIC amounted to 1000 µg/mL (≈ 2800 µM) in the experiment on Aspergillus clavatus; 62.5 µg/mL (≈ 175 µM) with Escherichia coli; 125 µg/mL (≈ 350 µM) in the experiment on Pseudomonas aeruginosa; 250 µg/mL (≈ 699 µM) in the experiment on Streptococcus pyogenes; 62.5 µg/mL (≈ 175 µM) in the experiment with Staphylococcus aureus; 1000 µg/mL (≈ 2800 µM) in the experiment on Aspergillus niger. Besides, the minimal inhibitory concentration (MIC) (with Candida albicans; in experiment [1]) was 500 µg/mL (≈ 1400 µM) in each case. Further, in experiment [1], the “growth inhibition (GI)” value is 97%.
On to `CC1(C)S[C@@H]2[C@H](NC(=O)[C@H](N)c3ccccc3)C(=O)N2[C@H]1C(=O)O` [AMPICILLIN], for which the MIC with Escherichia coli amounted to 100 µg/mL (≈ 286 µM); in the experiment on Pseudomonas aeruginosa it was 100 µg/mL (≈ 286 µM); in the experiment with Streptococcus pyogenes it was 100 µg/mL (≈ 286 µM); in the experiment with Staphylococcus aureus, 250 µg/mL (≈ 715 µM).
On to `COC1=CC(=O)C[C@@H](C)[C@]12Oc1c(Cl)c(OC)cc(OC)c1C2=O` [GRISEOFULVIN], for which the results for the minimal inhibitory concentration (MIC) in the experiment on Aspergillus clavatus, in the experiment on Aspergillus niger and in the experiment on Candida albicans were 100 µg/mL (≈ 283 µM), 100 µg/mL (≈ 283 µM) and 500 µg/mL (≈ 1420 µM), respectively.
In the case of `CO[C@H]1/C=C/O[C@@]2(C)Oc3c(C)c(O)c4c(O)c(c(/C=N/N5CCN(C)CC5)c(O)c4c3C2=O)NC(=O)/C(C)=C\C=C\[C@H](C)[C@H](O)[C@@H](C)[C@@H](O)[C@@H](C)[C@H](OC(C)=O)[C@@H]1C` [RIFAMPIN], in experiment [1], the “growth inhibition (GI)” value is reported as 99% and the MIC is 40 µg/mL (≈ 48.6 µM).
